For two compounds, IC50 results are on record in patent US9840498B2, “Substituted quinazolin-4-one derivatives” (NOVARTIS AG, priority 2013, dated 2017).

The test concerns the target human phosphoinositide-3 kinase (PI3K) alpha (Homo sapiens (Human), UniProt P42336). The test is described as follows: PI3K-mediated Akt 1/2 (S473) phosphorylation in Rat-1 cells overexpressing PI3K alpha. It counts as cell-based, rat cells expressing human PI3K alpha. The following applies: cellular assay, p-AKT(Ser473), read-out: Cell PI3K alpha IC50.

Sequence of human phosphoinositide-3 kinase (PI3K) alpha (P42336 whole entry): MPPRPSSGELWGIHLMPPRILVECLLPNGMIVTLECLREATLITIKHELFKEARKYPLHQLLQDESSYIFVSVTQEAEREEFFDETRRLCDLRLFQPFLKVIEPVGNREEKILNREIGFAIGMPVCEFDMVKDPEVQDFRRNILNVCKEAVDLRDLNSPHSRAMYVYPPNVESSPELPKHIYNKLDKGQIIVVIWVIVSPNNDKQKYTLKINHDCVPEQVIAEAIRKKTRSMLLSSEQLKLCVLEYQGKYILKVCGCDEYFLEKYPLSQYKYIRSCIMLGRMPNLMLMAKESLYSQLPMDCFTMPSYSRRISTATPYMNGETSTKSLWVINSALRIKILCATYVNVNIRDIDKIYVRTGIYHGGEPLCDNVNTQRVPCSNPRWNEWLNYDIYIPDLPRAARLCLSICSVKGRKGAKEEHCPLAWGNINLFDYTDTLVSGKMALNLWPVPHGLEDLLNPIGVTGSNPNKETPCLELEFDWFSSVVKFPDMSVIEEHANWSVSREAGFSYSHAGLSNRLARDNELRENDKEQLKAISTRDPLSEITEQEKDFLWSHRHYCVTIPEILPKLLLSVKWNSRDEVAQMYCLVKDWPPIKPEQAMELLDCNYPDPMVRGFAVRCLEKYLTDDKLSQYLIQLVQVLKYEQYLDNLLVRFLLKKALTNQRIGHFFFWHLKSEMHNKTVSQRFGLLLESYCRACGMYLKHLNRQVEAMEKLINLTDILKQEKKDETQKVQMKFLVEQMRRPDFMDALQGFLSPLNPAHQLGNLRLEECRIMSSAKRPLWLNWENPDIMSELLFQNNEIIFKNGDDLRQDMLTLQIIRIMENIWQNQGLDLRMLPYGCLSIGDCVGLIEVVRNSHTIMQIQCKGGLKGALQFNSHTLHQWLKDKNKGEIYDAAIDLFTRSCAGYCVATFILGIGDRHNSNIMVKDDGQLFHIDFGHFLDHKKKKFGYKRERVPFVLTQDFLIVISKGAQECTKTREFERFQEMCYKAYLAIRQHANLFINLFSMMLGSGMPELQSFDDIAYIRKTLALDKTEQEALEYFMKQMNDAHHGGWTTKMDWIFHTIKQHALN
Sequence of human phosphoinositide-3 kinase (PI3K) alpha (Q63787 whole entry partner): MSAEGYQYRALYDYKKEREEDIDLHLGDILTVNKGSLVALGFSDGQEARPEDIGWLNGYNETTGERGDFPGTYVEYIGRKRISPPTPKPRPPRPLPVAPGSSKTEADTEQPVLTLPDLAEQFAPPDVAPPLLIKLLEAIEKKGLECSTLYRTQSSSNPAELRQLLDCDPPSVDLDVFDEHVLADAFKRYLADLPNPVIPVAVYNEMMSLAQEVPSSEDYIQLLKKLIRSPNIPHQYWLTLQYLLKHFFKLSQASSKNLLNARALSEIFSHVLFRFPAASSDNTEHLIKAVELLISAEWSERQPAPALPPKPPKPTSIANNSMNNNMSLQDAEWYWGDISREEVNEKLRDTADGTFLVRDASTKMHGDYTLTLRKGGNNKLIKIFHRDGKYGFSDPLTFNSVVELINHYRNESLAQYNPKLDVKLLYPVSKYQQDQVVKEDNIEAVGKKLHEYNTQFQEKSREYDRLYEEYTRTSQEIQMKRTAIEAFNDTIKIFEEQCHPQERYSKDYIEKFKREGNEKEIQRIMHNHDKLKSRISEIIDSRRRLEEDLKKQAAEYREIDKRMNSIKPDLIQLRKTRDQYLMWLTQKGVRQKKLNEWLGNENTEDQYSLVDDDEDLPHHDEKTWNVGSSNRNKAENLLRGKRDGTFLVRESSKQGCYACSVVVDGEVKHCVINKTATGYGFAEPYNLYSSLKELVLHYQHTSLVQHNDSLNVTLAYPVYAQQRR

With `Cc1ccccc1-n1c([C@@H]2CCCN2c2ncnc(N)c2C#N)nc2cccc(-c3cnn(C)c3)c2c1=O` [Example 14, (S)-4-Amino-6-(2-(5-(1-methyl-1H-pyrazol-4-yl)-4-oxo-3-(otolyl)-3,4-dihydroquinazolin-2-yl)pyrrolidin-1-yl)pyrimidine-5-carbonitrile], the concentration for half-maximal inhibition (IC50) was 3.3 µM. Take `CO[C@H]1C[C@@H](c2nc3cccc(-c4cnn(C)c4)c3c(=O)n2-c2ccccc2)N(c2nc(N)nc(C)c2C#N)C1` [Example 10, 2-Amino-4-((2S,4S)-4-methoxy-2-(5-(1-methyl-1H-pyrazol-4-yl)-4-oxo-3-phenyl-3,4-dihydroquinazolin-2-yl)pyrrolidin-1-yl)-6-methylpyrimidine-5-carbonitrile]: the half-maximal inhibitory concentration (IC50) is 3.9 µM.

A word on the IC50: it is the point on the concentration scale where inhibition reaches its midpoint.
